The source made the active and inactive calls.
How the values were obtained:
[1] = target: ALK tyrosine kinase receptor (Homo sapiens, UniProt Q9UM73); type: functional;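 also: ALK tested as one member of a kinase panel screen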
[2] = target: Serine/threonine-protein kinase D2 (Homo sapiens, UniProt Q9BZL6); type: functional;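 also: measured against PRKD2 as one member of a kinome-wide kinase profiling panel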
[3] = target: Calcium/calmodulin-dependent protein kinase type II subunit gamma (Homo sapiens, UniProt Q13555); type: functional
[4] = target: Tyrosine-protein kinase receptor TYRO3 (Homo sapiens, UniProt Q06418); type: functional;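 also: TYRO3 value obtained as one member of a kinome-wide profiling panel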
[5] = target: Death-associated protein kinase 3 (Homo sapiens, UniProt O43293); type: functional;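 also: measured as one member of a kinome-wide profiling panel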
[6] = target: Mitogen-activated protein kinase 8 (Homo sapiens, UniProt P45983); type: functional;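 also: value comes from one member of a kinome-wide kinase profiling panel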
Aurora kinase A = Aurora kinase A (Homo sapiens, UniProt O14965); type: functional;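 also: value from the Navigating the Kinome kinase panel profiling, panel entry STK6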
[7] = target: MAP kinase-activated protein kinase 5 (Homo sapiens, UniProt Q8IW41); type: functional;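 also: measured as one member of a kinome panel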
[8] = target: Mast/stem cell growth factor receptor Kit (Homo sapiens, UniProt P10721); type: functional;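 also: KIT entry within a kinase panel assay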
[9] = target: Serine/threonine-protein kinase PAK 1 (Homo sapiens, UniProt Q13153); type: functional
[10] = target: Casein kinase I isoform alpha (Homo sapiens, UniProt P48729); type: functional
[11] = target: Tyrosine-protein kinase JAK3 (Homo sapiens, UniProt P52333); type: functional
[12] = target: Ribosomal protein S6 kinase alpha-5 (Homo sapiens, UniProt O75582); type: functional
[13] = target: Tyrosine-protein kinase ITK/TSK (Homo sapiens, UniProt Q08881); type: functional;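 also: affinity for ITK measured as one member of a broad kinase panel profiling binding across the kinome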
[14] = target: Serine/threonine-protein kinase N2 (Homo sapiens, UniProt Q16513); type: functional
[15] = target: Proto-oncogene tyrosine-protein kinase ROS (Homo sapiens, UniProt P08922); type: functional;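 also: ROS1 tested as one member of a kinome-wide kinase panel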
Insulin receptor = Insulin receptor (Homo sapiens, UniProt P06213); type: functional;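 also: insulin receptor kinase tested as one member of a kinome-wide kinase panel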
[16] = target: Mitogen-activated protein kinase kinase kinase 20 (Homo sapiens, UniProt Q9NYL2); type: functional
[17] = target: Protein kinase C gamma type (Homo sapiens, UniProt P05129); type: functional
[18] = target: Tyrosine-protein kinase Srms (Homo sapiens, UniProt Q9H3Y6); type: functional;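 also: SRMS measured as one member of a kinome-wide kinase profiling panel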
[19] = target: Glycogen synthase kinase-3 alpha (Homo sapiens, UniProt P49840); type: functional;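 also: GSK3A result taken from a broad kinome-wide kinase panel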
[20] = target: Vascular endothelial growth factor receptor 2 (Homo sapiens, UniProt P35968); type: functional
[21] = target: Insulin-like growth factor 1 receptor (Homo sapiens, UniProt P08069); assay: Navigating the Kinome. Panel member name: IGF1R; type: functional
[22] = target: Mitogen-activated protein kinase 1 (Homo sapiens, UniProt P28482); type: functional
[23] = target: Serine/threonine-protein kinase Nek4 (Homo sapiens, UniProt P51957); type: functional
[24] = target: Dual specificity tyrosine-phosphorylation-regulated kinase 4 (Homo sapiens, UniProt Q9NR20); type: functional
[25] = target: Protein kinase C iota type (Homo sapiens, UniProt P41743); type: functional;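 also: measured within a kinome-wide kinase panel, PRKCI as panel member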
[26] = target: Receptor tyrosine-protein kinase erbB-4 (Homo sapiens, UniProt Q15303); type: functional;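 also: ERBB4 member of a kinome-wide kinase profiling panel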
[27] = target: Mitogen-activated protein kinase 12 (Homo sapiens, UniProt P53778); type: functional;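 also: measured as one member of a kinome-wide kinase profiling panel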
[28] = target: Lymphokine-activated killer T-cell-originated protein kinase (Homo sapiens, UniProt Q96KB5); type: functional;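 also: value comes from a kinase panel screen in which TOPK was one of the panel members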
[29] = target: Mitogen-activated protein kinase kinase kinase kinase 4 (Homo sapiens, UniProt O95819); type: functional
[30] = target: Macrophage colony-stimulating factor 1 receptor (Homo sapiens, UniProt P07333); type: functional;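 also: value comes from the Navigating the Kinome screening panel, CSF1R member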
[31] = target: Tyrosine-protein kinase FRK (Homo sapiens, UniProt P42685); type: functional;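 also: FRK tested as one member of a kinome panel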
BJ [32] = assay: cytotoxicity toward BJ-TERT fibroblasts, dose response, cell-based, RAS-independent, luminescence (AID 1933); type: functional; conditions: Homo sapiens
BJ [33] = assay: cells; type: functional, cell-based; conditions: Homo sapiens
[34] = C. albicans growth with fluconazole, confirmation, fluorescence, retest (AID 2467); type: functional, cell-based
[35] = target: T1, Serine/threonine-protein phosphatase (Candida dubliniensis (strain CD36 / CBS 7987 / NCPF 3949 / NRRLY-17841) (Yeast), UniProt B9W6M3); assay: calcineurin pathway inhibitors in yeast reporter, dose response, S. cerevisiae, CDRE-lacZ, luminescence, secondary (AID 2388); type: functional, cell-based;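 also: yeast reporter cells carrying a calcineurin-responsive lacZ construct stimulated with calcium chloride; luminescent beta-galactosidase reporter signal in whole cells rather than isolated phosphatase activity; potency for inhibition where a drop in reporter signal means calcineurin blockade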
T1 sequence (B9W6M3 whole entry): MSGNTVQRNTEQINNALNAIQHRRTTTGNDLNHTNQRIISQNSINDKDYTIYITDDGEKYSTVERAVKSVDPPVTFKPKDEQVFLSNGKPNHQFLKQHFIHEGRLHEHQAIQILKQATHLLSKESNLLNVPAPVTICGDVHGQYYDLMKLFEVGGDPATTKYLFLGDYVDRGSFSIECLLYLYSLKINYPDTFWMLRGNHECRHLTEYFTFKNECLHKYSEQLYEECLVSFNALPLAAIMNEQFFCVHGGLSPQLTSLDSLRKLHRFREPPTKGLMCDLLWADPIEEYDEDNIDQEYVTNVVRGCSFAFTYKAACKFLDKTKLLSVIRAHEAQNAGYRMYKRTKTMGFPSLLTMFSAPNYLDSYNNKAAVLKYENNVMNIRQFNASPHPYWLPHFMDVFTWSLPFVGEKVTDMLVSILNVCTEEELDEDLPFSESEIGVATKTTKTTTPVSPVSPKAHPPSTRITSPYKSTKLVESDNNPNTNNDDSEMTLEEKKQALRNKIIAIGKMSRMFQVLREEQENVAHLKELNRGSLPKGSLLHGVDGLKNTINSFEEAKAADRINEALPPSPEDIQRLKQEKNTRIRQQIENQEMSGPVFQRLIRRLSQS

BJ [36] = assay: cytotoxicity toward BJ-TERT-LT-ST fibroblasts, dose response, cell-based, RAS-independent, luminescence (AID 1935); type: functional; conditions: Homo sapiens;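 also: BJ fibroblasts immortalized with TERT plus LT and ST oncogenes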
[37] = target: T1, Serine/threonine-protein phosphatase; assay: Fluorescence Cell-Based Secondary Assay to Identify Inhibitors of Calcineurin. [Related pubchem assays (depositor defined):AID1979, AID2007]; type: functional

Macrophage colony-stimulating factor 1 receptor, sequence (P07333 whole entry): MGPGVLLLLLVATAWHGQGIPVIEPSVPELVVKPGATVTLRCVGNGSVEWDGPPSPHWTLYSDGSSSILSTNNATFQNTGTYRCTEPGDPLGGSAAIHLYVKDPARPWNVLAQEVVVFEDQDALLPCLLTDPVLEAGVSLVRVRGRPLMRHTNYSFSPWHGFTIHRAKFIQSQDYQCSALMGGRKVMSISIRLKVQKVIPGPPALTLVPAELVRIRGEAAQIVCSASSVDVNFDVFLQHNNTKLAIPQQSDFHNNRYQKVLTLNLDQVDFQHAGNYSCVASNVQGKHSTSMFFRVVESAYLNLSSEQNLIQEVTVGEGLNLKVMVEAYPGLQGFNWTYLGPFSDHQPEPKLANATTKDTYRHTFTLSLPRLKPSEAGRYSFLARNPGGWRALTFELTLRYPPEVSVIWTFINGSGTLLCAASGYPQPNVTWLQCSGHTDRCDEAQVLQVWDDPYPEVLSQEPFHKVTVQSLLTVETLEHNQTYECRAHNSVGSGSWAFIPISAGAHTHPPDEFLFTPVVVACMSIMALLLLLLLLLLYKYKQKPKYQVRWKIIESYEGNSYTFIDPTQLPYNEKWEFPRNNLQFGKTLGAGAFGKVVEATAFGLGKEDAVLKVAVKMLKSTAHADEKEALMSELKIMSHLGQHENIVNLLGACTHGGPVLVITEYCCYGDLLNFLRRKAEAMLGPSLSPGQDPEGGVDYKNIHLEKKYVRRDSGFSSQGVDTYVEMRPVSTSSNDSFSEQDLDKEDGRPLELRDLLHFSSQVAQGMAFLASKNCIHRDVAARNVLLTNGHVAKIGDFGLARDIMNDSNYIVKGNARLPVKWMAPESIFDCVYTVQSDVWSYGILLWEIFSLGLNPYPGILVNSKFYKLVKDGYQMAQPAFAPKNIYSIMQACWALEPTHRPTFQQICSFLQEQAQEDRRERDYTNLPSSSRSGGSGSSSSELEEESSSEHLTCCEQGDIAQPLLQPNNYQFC
Glycogen synthase kinase-3 alpha, sequence (P49840 whole entry): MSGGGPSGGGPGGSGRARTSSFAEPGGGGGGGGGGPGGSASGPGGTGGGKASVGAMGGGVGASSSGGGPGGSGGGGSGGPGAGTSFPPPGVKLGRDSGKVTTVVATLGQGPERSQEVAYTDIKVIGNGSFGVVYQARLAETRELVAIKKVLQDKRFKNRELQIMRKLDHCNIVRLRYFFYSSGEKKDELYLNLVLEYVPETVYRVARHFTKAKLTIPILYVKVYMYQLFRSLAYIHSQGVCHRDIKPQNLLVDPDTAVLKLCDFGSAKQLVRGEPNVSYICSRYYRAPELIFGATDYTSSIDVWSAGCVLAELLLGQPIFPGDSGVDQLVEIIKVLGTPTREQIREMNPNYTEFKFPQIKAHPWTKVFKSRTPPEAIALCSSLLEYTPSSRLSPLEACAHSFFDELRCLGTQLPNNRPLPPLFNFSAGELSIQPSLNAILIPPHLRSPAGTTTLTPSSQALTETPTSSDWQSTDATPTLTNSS
Tyrosine-protein kinase JAK3, sequence (P52333 whole entry): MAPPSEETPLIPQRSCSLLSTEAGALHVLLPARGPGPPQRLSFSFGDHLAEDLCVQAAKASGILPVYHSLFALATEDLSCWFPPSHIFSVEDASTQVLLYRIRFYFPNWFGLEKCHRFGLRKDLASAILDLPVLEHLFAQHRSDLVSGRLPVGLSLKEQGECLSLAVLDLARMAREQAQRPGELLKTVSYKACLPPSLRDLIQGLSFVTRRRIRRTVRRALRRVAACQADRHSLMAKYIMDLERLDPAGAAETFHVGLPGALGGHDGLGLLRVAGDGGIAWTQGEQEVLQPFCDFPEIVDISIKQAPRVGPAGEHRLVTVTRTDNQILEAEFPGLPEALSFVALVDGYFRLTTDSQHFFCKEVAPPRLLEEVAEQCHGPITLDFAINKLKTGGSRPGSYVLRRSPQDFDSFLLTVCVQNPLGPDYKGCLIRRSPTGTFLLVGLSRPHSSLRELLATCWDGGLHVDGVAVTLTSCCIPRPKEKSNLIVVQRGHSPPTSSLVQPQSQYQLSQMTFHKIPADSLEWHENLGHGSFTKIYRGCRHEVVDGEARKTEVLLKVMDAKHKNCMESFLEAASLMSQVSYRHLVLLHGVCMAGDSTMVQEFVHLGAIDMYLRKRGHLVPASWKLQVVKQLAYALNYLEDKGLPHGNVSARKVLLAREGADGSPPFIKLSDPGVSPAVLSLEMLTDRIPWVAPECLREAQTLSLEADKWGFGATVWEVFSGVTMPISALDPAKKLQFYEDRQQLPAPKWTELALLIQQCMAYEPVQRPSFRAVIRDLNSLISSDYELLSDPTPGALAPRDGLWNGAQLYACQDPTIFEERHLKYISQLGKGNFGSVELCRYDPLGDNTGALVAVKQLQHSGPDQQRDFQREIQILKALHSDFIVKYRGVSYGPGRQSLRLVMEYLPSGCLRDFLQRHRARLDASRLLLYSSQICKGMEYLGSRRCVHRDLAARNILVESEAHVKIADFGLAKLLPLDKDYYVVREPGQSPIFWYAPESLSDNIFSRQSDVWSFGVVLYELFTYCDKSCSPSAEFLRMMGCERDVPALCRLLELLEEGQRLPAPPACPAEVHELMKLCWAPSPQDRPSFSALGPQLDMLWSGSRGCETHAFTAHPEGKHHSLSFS
MAP kinase-activated protein kinase 5, sequence (Q8IW41 whole entry): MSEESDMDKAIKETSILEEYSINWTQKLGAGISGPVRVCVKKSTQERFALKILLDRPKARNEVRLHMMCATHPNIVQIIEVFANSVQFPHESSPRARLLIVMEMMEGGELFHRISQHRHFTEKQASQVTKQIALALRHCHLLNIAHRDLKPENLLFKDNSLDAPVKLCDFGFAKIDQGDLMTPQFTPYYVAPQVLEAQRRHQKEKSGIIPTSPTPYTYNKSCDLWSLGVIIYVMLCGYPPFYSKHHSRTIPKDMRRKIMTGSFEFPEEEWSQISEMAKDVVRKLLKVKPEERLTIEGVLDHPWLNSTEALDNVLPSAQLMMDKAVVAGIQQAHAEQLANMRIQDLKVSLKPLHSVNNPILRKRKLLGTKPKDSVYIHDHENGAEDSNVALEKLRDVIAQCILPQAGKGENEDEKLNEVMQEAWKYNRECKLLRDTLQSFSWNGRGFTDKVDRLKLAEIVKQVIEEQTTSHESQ
Tyrosine-protein kinase FRK, sequence (P42685 whole entry): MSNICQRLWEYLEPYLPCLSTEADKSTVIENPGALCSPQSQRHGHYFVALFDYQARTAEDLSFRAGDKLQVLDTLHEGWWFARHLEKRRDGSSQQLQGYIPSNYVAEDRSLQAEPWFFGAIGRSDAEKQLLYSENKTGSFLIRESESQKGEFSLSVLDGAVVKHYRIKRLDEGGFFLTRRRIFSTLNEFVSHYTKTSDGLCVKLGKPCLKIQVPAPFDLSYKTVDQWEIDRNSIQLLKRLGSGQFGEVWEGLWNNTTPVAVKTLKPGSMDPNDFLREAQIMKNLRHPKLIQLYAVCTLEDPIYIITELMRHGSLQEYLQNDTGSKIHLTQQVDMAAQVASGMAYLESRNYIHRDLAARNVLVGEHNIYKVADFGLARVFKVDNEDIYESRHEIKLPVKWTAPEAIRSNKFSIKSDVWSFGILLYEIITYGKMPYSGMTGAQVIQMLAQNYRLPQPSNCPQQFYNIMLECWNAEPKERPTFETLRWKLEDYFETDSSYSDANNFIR
Mitogen-activated protein kinase 12, sequence (P53778 whole entry): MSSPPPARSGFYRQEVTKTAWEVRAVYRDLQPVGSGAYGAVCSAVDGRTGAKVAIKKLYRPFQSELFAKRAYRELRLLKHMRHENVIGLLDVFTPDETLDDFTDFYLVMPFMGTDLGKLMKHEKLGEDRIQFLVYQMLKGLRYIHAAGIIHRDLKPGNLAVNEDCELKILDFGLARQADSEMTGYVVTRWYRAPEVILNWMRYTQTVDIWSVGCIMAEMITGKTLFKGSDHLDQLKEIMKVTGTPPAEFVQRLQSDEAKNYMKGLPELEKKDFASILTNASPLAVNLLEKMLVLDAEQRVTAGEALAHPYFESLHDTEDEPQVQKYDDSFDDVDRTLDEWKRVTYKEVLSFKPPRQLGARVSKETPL
Death-associated protein kinase 3, sequence (O43293 whole entry): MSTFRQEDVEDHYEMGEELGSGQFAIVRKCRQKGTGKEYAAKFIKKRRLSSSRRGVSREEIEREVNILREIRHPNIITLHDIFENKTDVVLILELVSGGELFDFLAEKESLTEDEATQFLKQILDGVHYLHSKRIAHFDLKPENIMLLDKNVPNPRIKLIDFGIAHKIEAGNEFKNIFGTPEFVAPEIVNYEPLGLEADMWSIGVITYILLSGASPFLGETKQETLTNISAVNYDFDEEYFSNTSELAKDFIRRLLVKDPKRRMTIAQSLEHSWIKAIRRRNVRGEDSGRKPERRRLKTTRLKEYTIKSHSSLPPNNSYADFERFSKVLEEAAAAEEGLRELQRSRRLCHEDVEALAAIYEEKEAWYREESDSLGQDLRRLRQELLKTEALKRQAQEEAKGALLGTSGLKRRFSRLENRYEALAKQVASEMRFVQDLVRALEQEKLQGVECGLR
Calcium/calmodulin-dependent protein kinase type II subunit gamma, sequence (Q13555 whole entry): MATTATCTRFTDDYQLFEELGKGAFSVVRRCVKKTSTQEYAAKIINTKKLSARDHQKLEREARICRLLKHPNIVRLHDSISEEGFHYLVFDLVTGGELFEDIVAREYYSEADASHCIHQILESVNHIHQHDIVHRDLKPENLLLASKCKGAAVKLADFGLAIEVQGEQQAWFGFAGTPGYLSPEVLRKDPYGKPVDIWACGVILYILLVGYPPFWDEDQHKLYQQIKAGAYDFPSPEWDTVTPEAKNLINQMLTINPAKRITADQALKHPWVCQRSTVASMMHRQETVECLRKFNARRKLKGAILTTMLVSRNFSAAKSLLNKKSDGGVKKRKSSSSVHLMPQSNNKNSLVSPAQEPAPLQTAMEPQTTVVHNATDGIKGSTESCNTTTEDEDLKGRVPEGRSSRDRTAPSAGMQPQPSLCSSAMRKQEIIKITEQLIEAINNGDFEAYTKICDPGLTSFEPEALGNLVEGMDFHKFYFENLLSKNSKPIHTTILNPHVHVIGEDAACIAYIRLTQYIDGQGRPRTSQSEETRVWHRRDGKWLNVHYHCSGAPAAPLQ

**Q.** With `CCn1c(-c2nonc2N)nc2cnc(Oc3cccc(NC(=O)c4ccc(OCCN5CCOCC5)cc4)c3)cc21` [GSK-269962A] as the molecule, how does the Ki [1] read?
**A.** The Ki was > 1260 nM (inactive).

**Q.** What about the Ki [2] of the same molecule?
**A.** The Ki was 2000 nM (active).

**Q.** What about the Ki [3] of the same molecule?
**A.** The Ki was > 6310 nM (inactive).

**Q.** And the Ki [4]?
**A.** Its Ki is > 2000 nM (inactive).

**Q.** What about the Ki [5] of the same molecule?
**A.** The Ki was 501 nM (active).

**Q.** What about the Ki [6] of the same molecule?
**A.** Its Ki is > 3160 nM (inactive).

**Q.** And the Ki (Aurora kinase A)?
**A.** The Ki was 501 nM (active).

**Q.** What about the Ki [7] of the same molecule?
**A.** Its Ki is > 1580 nM (inactive).

**Q.** And the Ki [8]?
**A.** Its Ki is > 1260 nM (inactive).

**Q.** What about the Ki [9] of the same molecule?
**A.** The Ki was > 10000 nM (inactive).

**Q.** What about the Ki [10] of the same molecule?
**A.** Its Ki is > 6310 nM (inactive).

**Q.** What about the Ki [11] of the same molecule?
**A.** Its Ki is > 1580 nM (inactive).

**Q.** What about the Ki [12] of the same molecule?
**A.** Its Ki is 63.1 nM (active).

**Q.** What about the Ki [13] of the same molecule?
**A.** Its Ki is > 1580 nM (inactive).

**Q.** What about the Ki [14] of the same molecule?
**A.** Its Ki is 25.1 nM (active).

**Q.** And the Ki [15]?
**A.** The Ki was > 2000 nM (inactive).

**Q.** What about the Ki (Insulin receptor) of the same molecule?
**A.** The Ki was > 5010 nM (inactive).

**Q.** What about the Ki [16] of the same molecule?
**A.** The Ki was > 7940 nM (inactive).

**Q.** And the Ki [17]?
**A.** Its Ki is 251 nM (active).

**Q.** What about the Ki [18] of the same molecule?
**A.** The Ki was > 1580 nM (inactive).

**Q.** And the Ki [19]?
**A.** Its Ki is 50.1 nM (active).

**Q.** What about the Ki [20] of the same molecule?
**A.** The Ki was > 7940 nM (inactive).

**Q.** What about the Ki [21] of the same molecule?
**A.** The Ki was > 2000 nM (inactive).

**Q.** And the Ki [22]?
**A.** Its Ki is > 7940 nM (inactive).

**Q.** And the Ki [23]?
**A.** Its Ki is > 6310 nM (inactive).

**Q.** And the Ki [24]?
**A.** Its Ki is > 7940 nM (inactive).

**Q.** What about the Ki [25] of the same molecule?
**A.** The Ki was 31.6 nM (active).

**Q.** What about the Ki [26] of the same molecule?
**A.** Its Ki is > 3980 nM (inactive).

**Q.** And the Ki [27]?
**A.** The Ki was > 6310 nM (inactive).

**Q.** And the Ki [28]?
**A.** The Ki was > 10000 nM (inactive).

**Q.** And the Ki [29]?
**A.** The Ki was > 10000 nM (inactive).

**Q.** What about the Ki [30] of the same molecule?
**A.** The Ki was > 2510 nM (inactive).

**Q.** What about the Ki [31] of the same molecule?
**A.** Its Ki is > 2510 nM (inactive).

**Q.** Which results are given for `COc1ccc(-c2nnc(NC(=O)c3ccc(F)cc3)o2)cc1`?
**A.** EC50 (BJ [32]): 61700 nM (active); EC50 (BJ [33]): 30700 nM (active); EC50 [34]: 305 nM (active); EC50 [35]: > 180000 nM (inactive); EC50 (BJ [36]): > 150000 nM (not active); EC50 [37]: > 285000 nM (inactive)
